Experimental data from PMC8020795 (Proceedings of the National Academy of Sciences of the …, 2021).
Several values for one entry are separate records, joined by “and”; a condition that tells them apart may be missing. Equal values may be shown once. Entries after “also recorded” stand apart in the source; their conditions may differ.

How the values were obtained:
[1] = molecular target: CXCR4 (Homo sapiens, UniProt P61073); test: CXCL12-induced chemotaxis inhibition assay in CCRF-CEM cells; type: cell-based; design: host or cells: CCRF-CEM; details: mean ± SD
Sequence of CXCR4 (P61073 whole entry): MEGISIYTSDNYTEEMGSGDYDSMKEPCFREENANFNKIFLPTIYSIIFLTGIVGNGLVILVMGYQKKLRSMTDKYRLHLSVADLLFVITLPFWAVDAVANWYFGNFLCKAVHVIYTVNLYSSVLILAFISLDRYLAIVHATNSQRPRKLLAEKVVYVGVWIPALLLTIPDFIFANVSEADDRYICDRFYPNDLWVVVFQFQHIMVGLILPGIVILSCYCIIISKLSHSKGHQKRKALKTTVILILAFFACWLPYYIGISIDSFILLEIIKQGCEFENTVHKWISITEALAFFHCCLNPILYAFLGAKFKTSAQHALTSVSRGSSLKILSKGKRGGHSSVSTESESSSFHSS
Description: Figure S1. Binding affinity and chemotaxis inhibition assay of BPRCX807. (a) Binding affinity (IC50) of BPRCX807 was determined by 50% inhibition of radioligand [125I]CXCL12 binding to hCXCR4-transfected HEK293T membrane; (b) CXCL12-induced chemotaxis inhibition assay was performed to measure the inhibitory activity of BPRCX807 using CCRF-CEM cell line. Values represent the mean ± SD of at least three independent […]
Figure S2. CXCR4+CD34+ stem cell mobilization. C57BL/6 male mice were […]
h after dosing, the peripheral blood was harvested for analyzing the number of CXCR4+CD34+ stem cells. The data are the mean values ± SEM (n = 3/group). Statistical

[2] = test system: 65 other nonprimary targets (receptors and ion channels); test: Off-target standard assays, remaining panel; type: binding; details: 10 µM
Source text: Table: List of genes examined by real-time PCR and the primer sequences used.
Genes Forward primers Reverse primers […]
Vim 5’-[…]-3’ 5’-[…]-3’ […]
Zeb2 5’-[…]-3’ 5’-[…]-3’
Twist1 5’-[…]-3’ 5’-[…]-3’
Cdh1 5’-[…]-3’ 5’-[…]-3’
Mta3 5’-[…]-3’ 5’-[…]-3’ […]
Off-target standard assays
Methods employed in this study have been adapted from the scientific literature to […]
maximize reliability and reproducibility. Reference standards were run as an integral part of […]
each assay to ensure the validity of the results obtained. Radioligand binding Assays were […]
performed under conditions described in the accompanying "Methods" section of this report […]
by Eurofins Panlabs, Inc (Taipei, Taiwan, ROC).
BPRCX807 were tested in the hERG (hERG-CHO, automated patch-clamp) assay and determined at Eurofins Panlabs (Missouri, USA). The experiment was accepted in accordance with Eurofins validation Standard Operating Procedure.
Selectivity Screening of various chemokine receptors
The results were performed by Eurofins DiscoverX (Fremont, California, USA). The

[3] = test system: JHH-7 cells; test: Western blot of phospho-ERK and phospho-AKT after CXCL12 stimulation; type: cell-based, human; details: 10 µM, CXCL12 stimulation
Description: Western blotting was conducted by following standard procedures. HCA-1 or JHH-7 cells (10^5 cells per well) were seeded in 12-well plates (Costar, IL), incubated for 12 h and […]
containing (100 ng/mL) serum-free medium. After 24 h, the cells were lysed in RIPA buffer on ice for 30 min, and samples were collected and loaded with 4× Laemmli Sample buffer (Bio-Rad, Hercules, CA). The samples were separated on a 10% SDS-PAGE gels and transferred to PVDF membranes. After blocking with skim milk for 1 h, the membranes were incubated at 4°C overnight with primary antibodies against p -AKT, AKT, p-ERK, ERK (Cell Signaling, Danvers, MA) or β-actin (Sigma-Aldrich, St. Louis, MO) before incubation with HRP-conjugated secondary antibodies (Antibodies Inc., Davis, CA) for 1 h. […]
Total RNA was extracted from HCA-1 cells using the RNeasy Mini Kit (Qiagen, CA, USA). cDNAs were synthesized using the High-Capicity cDNA Reverse Transcription Kit […]
Biosystems, CA, USA) on a QPCR System. The comparative threshold cycle method was used to calculate fold change in gene expression, which was normalized to β-actin as a […]

[4] = molecular target: T1, hERG (human K+ channel) (Homo sapiens, UniProt Q12809); test: hERG patch-clamp assay (hERG-CHO, automated patch-clamp); type: cell-based
T1 construct: host or cells: CHO (hERG-CHO)
T1 sequence (Q12809 whole entry): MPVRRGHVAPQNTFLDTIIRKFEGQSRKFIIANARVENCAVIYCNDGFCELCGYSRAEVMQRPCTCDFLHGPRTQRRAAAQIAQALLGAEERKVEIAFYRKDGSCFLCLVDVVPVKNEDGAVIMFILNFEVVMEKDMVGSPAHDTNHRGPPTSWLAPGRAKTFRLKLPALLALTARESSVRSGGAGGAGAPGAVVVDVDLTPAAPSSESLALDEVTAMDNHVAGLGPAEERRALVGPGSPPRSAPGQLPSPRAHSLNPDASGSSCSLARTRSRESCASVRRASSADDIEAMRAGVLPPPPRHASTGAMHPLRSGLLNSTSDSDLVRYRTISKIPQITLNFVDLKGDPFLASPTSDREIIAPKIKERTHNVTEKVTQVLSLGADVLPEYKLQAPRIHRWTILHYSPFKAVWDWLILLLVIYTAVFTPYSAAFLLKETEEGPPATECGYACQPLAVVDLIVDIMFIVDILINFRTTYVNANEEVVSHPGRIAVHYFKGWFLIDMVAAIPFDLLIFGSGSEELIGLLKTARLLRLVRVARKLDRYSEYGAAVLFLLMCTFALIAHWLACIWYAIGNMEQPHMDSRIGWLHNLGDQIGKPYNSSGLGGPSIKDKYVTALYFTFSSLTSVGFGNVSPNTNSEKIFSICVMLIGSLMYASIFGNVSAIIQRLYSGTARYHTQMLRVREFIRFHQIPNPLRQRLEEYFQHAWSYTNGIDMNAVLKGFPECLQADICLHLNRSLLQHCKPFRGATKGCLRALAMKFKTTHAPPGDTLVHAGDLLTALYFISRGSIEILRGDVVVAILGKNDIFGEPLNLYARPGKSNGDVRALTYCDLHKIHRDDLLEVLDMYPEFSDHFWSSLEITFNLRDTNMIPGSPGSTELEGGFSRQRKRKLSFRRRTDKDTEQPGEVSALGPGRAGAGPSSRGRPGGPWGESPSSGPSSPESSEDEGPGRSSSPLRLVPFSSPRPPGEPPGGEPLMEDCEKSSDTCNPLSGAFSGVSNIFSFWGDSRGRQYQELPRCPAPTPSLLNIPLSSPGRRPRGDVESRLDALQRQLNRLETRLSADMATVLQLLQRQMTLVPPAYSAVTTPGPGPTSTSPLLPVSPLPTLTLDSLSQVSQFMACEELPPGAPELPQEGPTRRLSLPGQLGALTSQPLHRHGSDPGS
Source text: page 16: Table: List of genes examined by real-time PCR and the primer sequences used. Genes Forward primers Reverse primers Slug [NT] Fn1 [NT] Cdh2 […] Foxc2 [NT] Zeb1 [NT] Zeb2 [NT] Twist1 [NT] Cdh1 [NT] Mta3 [NT] Cldn3 [NT] Cldn5 [NT] β-actin […] [NT] Off-target standard assays Methods employed in this study have been adapted from the scientific literature to maximize reliability and reproducibility. Reference standards were run as an integral part of each assay to ensure the validity of the results obtained. Radioligand binding Assays were performed under conditions described in the accompanying "Methods" section of this report by Eurofins Panlabs, Inc (Taipei, Taiwan, ROC). hERG patch-clamp assay BPRCX807 were tested in the hERG (hERG-CHO, automated patch-clamp) assay and determined at Eurofins Panlabs (Missouri, USA). The experiment was accepted in accordance with Eurofins validation Standard Operating Procedure. Selectivity Screening of various chemokine receptors The results were performed by Eurofins DiscoverX (Fremont, California, USA). The S15

[5] = in vivo; details: ICR, mouse, sc
[6] = test system: orthotopic HCA-1 tumors; test: Orthotopic HCA-1 HCC model; type: in vivo, C3H mice; details: for Overall survival: n = 8
Description: (§1) In vivo hepatocellular carcinoma treatment studies […]
(§2) mouse PD-1 (200 µg/mouse; BioXcell, BE0146). The therapeutic efficacy and the changes in immune cells were analyzed after two weeks of treatment. The tumor volume was calculated with the following formula: volume = width × length × height/2. […]
Hematoxylin and Eosin staining
Lung tissue was cut into small pieces and fixed in 4% PFA (in PBS) overnight before being embedded in paraffin wax. The sections were then stained with hematoxylin and eosin (H&E) and observed with an inverted microscope (IX83, Olympus, Japan).
HCA-1 tumor-bearing mice were anesthetized, perfused via intracardiac injection with PBS and then sacrificed. Tumor tissues were collected and harvested in enzyme-containing DMEM cell culture medium (1.5 mg/mL of collagenase type 1A and hyaluronidase; Sigma).
The tissues were cut and ground into smaller pieces and then digested for 1 h at 37 °C to form suspensions of single tumor cells. The suspensions were filtered through a 70-µm cell strainer (Corning, Manassas, VA), and the cells were then incubated with rat anti-mouse CD16/CD32 mAbs to block Fc receptors. After washing 3 times and resuspending in cold flow buffer (1% BSA, 0.1% NaN3 in PBS), the single-cell suspensions were incubated with monoclonal anti-mouse F4/80-PE (eBiosciences, San Diego, CA), 7-AAD, CD3e-APC, CD8a-PE-Cy7, CD45-FITC, CD4-PE (BD Biosciences, East Rutherford, NJ), CD86-APC-

[7] = test system: orthotopic JHH-7 tumors; test: Orthotopic JHH-7 HCC model; type: in vivo, nude mice; details: combination with sorafenib (40 mg/kg/d, oral); BPRCX807 15 mg/kg/d SC minipump
Description: as §1, §2

[8] = alone or combined with sorafenib

## Cc1cc(NC2CCN(C(=O)CCNCC(=O)O)CC2)nc(NCc2nc(CCCNCCCNC3CCCCC3)co2)n1 [BPRCX807]
[1]
  EC50: 48 nM and 48.1 nM
[2]
  Inhibition of 65 other nonprimary targets: < 50%
[3]
  CXCR4/CXCL12-triggered ERK and Akt activation: suppress CXCR4/CXCL12-triggered ERK and Akt activation more significantly than its counterparts
[4]
  IC50: > 100000 nM
[5]
  MTD: 75 mg/kg
[6]; BPRCX807 combined with sorafenib, day 24
  Lung metastasis (number of lung nodules): significantly suppress lung metastasis
[6]; [8]
  Proportion of M1-like CD86+ TAMs in tumors: increasing the proportion
  Proportion of M2-like CD206+ TAMs in tumors: decreasing
[6]; combination of BPRCX807 (15 mg/kg/d SC) with anti–PD-1 (200 μg/mouse IP), day 24
  Tumor size reduction vs. control: more than 95%
[6]; combination with anti–PD-1
  Lung metastasis: significantly prevented
[6]; combination with anti–PD-1 vs either alone
  Overall survival: significantly prolonged
[6]; combination with sorafenib (40 mg/kg/d, oral), BPRCX807 15 mg/kg/d SC minipump
  Tumor volume reduction: roughly 85%
[6]; combination with sorafenib vs BPRCX807 (P = 0.0123) or sorafenib (P = 0.0053) alone
  Overall survival: significantly extended
[6]; treatment alone
  F4/80+ TAMs infiltration into tumor (flow cytometry): significantly decreased
[6]; treatment alone, compared to no treatment
  CD8+ T cell infiltration into tumors: moderately increased
[6]; treatment alone, day 24
  Intratumoral mean vessel density (MVD, CD31+ staining): significantly decrease intratumoral MVD
  Lung metastasis (number of lung nodules): reduced; also recorded: significantly suppress lung metastasis
[6]; treatment alone, immunotherapy study, day 24
  Tumor growth: moderately inhibiting tumor growth
[7]
  Tumor volume reduction: ~77%
